# Values quoted from earlier work in patent US20190388365A1, “C[…] NEURO-DEGENERATIVE DISEASES AND SIDE-EFFECTS ASSOCIATED WITH COGNITION EFFECTING PHARMACEUTICALS” (priority 2015, published 2019).
# System: patients receiving morphine
# Settings: limited clinical trials
structure (smiles),measurement,value
"NC(=O)C[S+]([O-])C(c1ccccc1)c1ccccc1 (racemic) [Modafinil, benzhydrylsulfinylacetamide]",effect on sleepiness and confusion associated with morphine delivery,reverses the sleepiness and even confusion associated with morphine delivery
